In paper PMC10326142 (Cancer Chemotherapy and Pharmacology, 2023):
“And” between values parts separate entries of the source, which are not always exact repeats. Equal values may be shown once. Read-outs that look alike come from different tables or passages of the source.

Tests used:
P-glycoprotein (P-gp) = system: P-glycoprotein (P-gp); parameters: method as in PMID 34664792; details: digoxin = P-gp substrate; cited from earlier work
[1] = system: patients with solid tumors; parameters: method as in Wong et al 27; details: monotherapy 180mg, N=6; cell as count (percent), ref Wong et al 27; cited from earlier work
[2] = Plasma pharmacokinetics of neratinib and trametinib co-administered, cycle 1 day 15 (LC/MS, noncompartmental); type: in vivo, human; details: for Tmax / Ctau or C24 (trough concentration) / Half-life: plasma; for Ctau or C24 (trough concentration): mean (range) in Table 4; for Oral CLss (oral clearance at steady state): mean (range) in Table 4, mean ± spread in text
patients = details: cited from earlier work
[3] = cited from earlier work
[4] = co-administered at dose level minus 1 (160 mg neratinib daily with 1 mg trametinib 5 days on and 2 days off), cycle 1 day 15, 8 patients
[5] = monotherapy 1mg, N=2, ref Infante et al 32
[6] = monotherapy 2mg, N=70, cell as count (percent), ref Infante et al 32
[7] = single agent trametinib 2 mg, 13 patients, mean (range), ref Infante et al. 32
[8] = single agent trametinib 2.5 mg, 16 patients, mean (range), ref Infante et al. 32
[9] = single agent trametinib 3 mg, 16 patients, mean (range), ref Infante et al. 32

CCOc1cc2ncc(C#N)c(Nc3ccc(OCc4ccccn4)c(Cl)c3)c2cc1NC(=O)/C=C/CN(C)C [neratinib]
increase of digoxin AUC (P-glycoprotein (P-gp)): 32%
increase of digoxin plasma concentrations (Cmax) (P-glycoprotein (P-gp)): 54%
Grade > 3 TRAE: Diarrhea [1]: 1 (17)
Grade > 3 TRAE: Fatigue [1]: 1 (17)
Grade > 3 TRAE: Nausea [1]: 0
Grade > 3 TRAE: Rash [1]: 0
Grade > 3 TRAE: Vomiting [1]: 0
TRAE of all grades: Anorexia [1]: 1 (17)
TRAE of all grades: Diarrhea [1]: 6 (100)
TRAE of all grades: Fatigue [1]: 4 (67)
TRAE of all grades: Nausea [1]: 3 (50)
TRAE of all grades: Rash [1]: 1 (17)
TRAE of all grades: Vomiting [1]: 2 (33)
changes in neratinib PKs compared to existing single agent PK data (in words) ([2]; PK cohort, co-administered with trametinib): no observed changes
Tmax ([2]; co-administered at dose level minus 1 (160 mg neratinib daily with 1 mg trametinib 5 days on and 2 days off), cycle 1 day 15, 8 patients, mean (range)): 5.8 (3–8) h
Ctau or C24 (trough concentration) [2, 4]: 43.99 (3.4–93) ng/mL
Oral CLss (oral clearance at steady state) [2, 4]: 76.7 ± 16.9 L/h
Oral CLss (oral clearance at steady state) ([2]; co-administered at dose level minus 1 (160 mg neratinib daily with 1 mg trametinib 5 days on and 2 days off), cycle 1 day 15, 8 patients, listed as Neratinib): 76.7 (56.5–93.5) L/h
AR (accumulation ratio) ([2]; co-administered at dose level minus 1 (160 mg neratinib daily with 1 mg trametinib 5 days on and 2 days off), day 15, 8 patients, mean (range)): 1.67 (1.19–2.16)
Half-life ([2]; human, oral): 18 h
Tmax ([2]; human, oral, read-out: Tmax): ~6 h

CC(=O)Nc1cccc(-n2c(=O)n(C3CC3)c(=O)c3c(Nc4ccc(I)cc4F)n(C)c(=O)c(C)c32)c1 [trametinib]
Grade > 3 TRAE: Fatigue (patients; [5]): 0
Grade > 3 TRAE: Nausea (patients; [5]): 0
TRAE of all grades: Mucositis (patients; [6]): 3 (4)
TRAE of all grades: Nausea (patients; [6]): 18 (26)
TRAE of all grades: Vomiting (patients; [6]): 9 (13)
oral clearance ([3]; published single agent data): 3.81 L/h
Cmax [3, 7]: 22.2 (14–32·9) ng/mL
Ctau or C24 [3, 7]: 12.1 (8.26–16.9) ng/mL
Half-life [3, 7]: 57.6 (4·01–210) h
AUC0-24 [3, 8]: 410 (215–865) ng*h/mL
Ctau or C24 [3, 8]: 15.1 (6.86–40.5) ng/mL
Half-life [3, 8]: 90.2 (58.4–183) h
AUC0-24 [3, 9]: 540 (261–968) ng*h/mL
Cmax [3, 9]: 33.4 (15.6–60.9) ng/mL
Ctau or C24 [3, 9]: 17.9 (7.77–35.5) ng/mL
Half-life [3, 9]: 86.1 (15.1–291) h
Tmax [3, 9]: 2.05 (0.5–10.0) h
Ctau or C24 (trough concentration) [2, 4]: 27.8 (8.5–42.2) ng/mL
Oral CLss (oral clearance at steady state) [2, 4]: 1.55 ± 0.63 L/h and 1.55 L/h
Oral CLss (oral clearance at steady state) ([2]; co-administered at dose level minus 1 (160 mg neratinib daily with 1 mg trametinib 5 days on and 2 days off), cycle 1 day 15, 8 patients, listed as Trametinib): 1.55 (0.95–2.4) L/h
Half-life ([2]; human, oral): 52 h
Tmax ([2]; human, oral, read-out: Tmax): 5.6 h
trametinib clearance when co-administered with neratinib (in words) ([2]; vs published single agent data): significantly reduced
